The values below are quoted from earlier work in patent publication US11375717B2, “Combinations of acaricides and insect growth regulators for control of fleas without emesis in animals” (Piedmont Animal Health Inc., priority 2017, dated 2022).

Each structure is given as a SMILES string.

The conditions of this data set: 30 mg/kg in cats and 10 mg/kg in dogs.

`O=C(NC(=O)c1c(F)cccc1F)Nc1cc(Cl)c(OC(F)(F)C(F)C(F)(F)F)cc1Cl` (stereo not shown) [Lufenuron]: the Emesis result was “common side effect”.
